This is an account of results in ChEMBL document CHEMBL3507680, “University of Dundee, Gates Library screen for HepG2 cell viability”.

Structures are written as SMILES.

This series can be described thus: Human HepG2 cell viability assay in 384 well format. Type of series: toxicity, cell-based. Set-up: dose 125 nL, time 70.5 hour; concentration not given beside the values. Conditions: HepG2 cells, read-out: Inhibition.
With `O=S1(=O)N(c2ccccc2)C[C@@H](O)[C@]12CCNC2`, the cytotoxicity at 70.5 h is -3.92%.

Consider `CO[C@@H]1CN(c2ccccc2)S(=O)(=O)[C@@]12CCNC2`, for which the cytotoxicity at 70.5 h came to 11.6%.

On to `CN1CC[C@H](N(C)Cc2ccccc2)C[C@H](O)C1`, for which the cytotoxicity at 70.5 h was -10.5%.

For the molecule `CN1CC[C@H](N(Cc2ccccc2)C2COC2)C[C@H](O)C1`, the cytotoxicity at 70.5 h was -6.77%.

Turning to `COC(=O)CC1c2cccnc2C(=O)N1Cc1ccccc1` (stereo not drawn), the cytotoxicity at 70.5 h was -3.32%.

For `CCOC(=O)N1[C@@H](c2ccco2)[C@@H](C(=O)O)C[C@]12CCCCNC2=O`, the cytotoxicity at 70.5 h was -7.52%.

Consider `CCN1Cc2cc(F)ccc2N(CC(O)C(F)(F)F)CCC1=O` (stereo not drawn), for which the cytotoxicity at 70.5 h is -8.41%.

`CCCC(O)CN1CCC(=O)N(CC)Cc2cc3c(cc21)OCO3` (stereo not drawn): the cytotoxicity at 70.5 h was -3.11%.

With `CN1C(=O)[C@H](OC(N)=O)[C@@H](C(=O)Nc2ccccc2)C12CCNCC2`, the cytotoxicity at 70.5 h was -10.7%.

Take `CC(C)COC(=O)N1[C@@H](c2ccco2)[C@@H](CO)C[C@]12CCCCNC2=O`: the cytotoxicity at 70.5 h was -9.55%.

As to `CCN1CCC(=O)N(C)Cc2cc(F)ccc21`, the cytotoxicity at 70.5 h is -8.5%.

In the case of `O=C(Nc1ccccc1)N1C(CN2CCOCC2)[C@]2(O)CC[C@H]1CC2` (stereo partly drawn), the cytotoxicity at 70.5 h is -2.88%.

In the case of `O=C1CCNc2ncc(-c3cccc(Cl)c3)cc2CN1C1CC1`, the cytotoxicity at 70.5 h was -1.89%.

Take `O=C1CCNc2ncc(-c3ccccc3Cl)cc2CN1C1CC1`: the cytotoxicity at 70.5 h was 0.196%.

Regarding `NC(=O)CN1CC(O)c2ccccc2S1(=O)=O` (stereo not drawn), the cytotoxicity at 70.5 h is -9.19%.

With `COC1CN(CCO)S(=O)(=O)c2ccccc21` (stereo not drawn), the cytotoxicity at 70.5 h is -7.83%.

With `O=C1CCNc2cc3c(cc2CN1Cc1ccco1)OCO3`, the cytotoxicity at 70.5 h is -5.93%.

Regarding `CCOC(=O)[C@@H]1[C@@H](c2ccccc2)CN2CCNC[C@H]12`, the cytotoxicity at 70.5 h is -11%.

In the case of `CO[C@@H]1CN(c2ccccc2)S(=O)(=O)[C@@]12CCN(Cc1ccccc1)C2`, the cytotoxicity at 70.5 h was -1.84%.

For the molecule `CO[C@@H]1CN(c2ccccc2)S(=O)(=O)[C@@]12CCN(Cc1cncs1)C2`, the cytotoxicity at 70.5 h was -2.7%.

In the case of `CO[C@H]1CN(c2ccccc2)S(=O)(=O)[C@@]12CCN(Cc1ccccc1)C2`, the cytotoxicity at 70.5 h amounted to 19.1%.

Turning to `CC(O)CN1CCC(=O)N(Cc2ccccc2)Cc2ccccc21` (stereo not drawn), the cytotoxicity at 70.5 h turned out to be 21.2%.

With `COCC(O)CN1CCC(=O)N(CC=C(C)C)Cc2ccccc21` (stereo not drawn), the cytotoxicity at 70.5 h was -6.53%.

Regarding `COCCN1CC(O)CN(C(=O)c2ccc(SC)cc2)CC1=O` (stereo not drawn), the cytotoxicity at 70.5 h was -4.29%.

As for `CCOC(=O)N1CC(=O)N(Cc2ccc(OC)cc2)CC(O)C1` (stereo not drawn), the cytotoxicity at 70.5 h amounted to 0.836%.

For `CC(C)CN1CC(O)CN(C(=O)c2cccc(C(F)(F)F)c2)CC1=O` (stereo not drawn), the cytotoxicity at 70.5 h came out at 13.3%.

Consider `CCCC(O)CN1CC(C)(C)CN(C(=O)CCc2ccccc2)CC1=O` (stereo not drawn), for which the cytotoxicity at 70.5 h came out at 19.5%.

Turning to `CC(C)(C)CN1CC(O)CN(C(=O)c2cccc(C(F)(F)F)c2)CC1=O` (stereo not drawn), the cytotoxicity at 70.5 h is -7.28%.

As to `COc1ccccc1C(=O)N1CC(=O)N(C2CCCCC2)CC(O)C1` (stereo not drawn), the cytotoxicity at 70.5 h worked out at 15.8%.

`O=C1CN(C(=O)c2ccc(Cl)cc2)CC(O)CN1Cc1cccs1` (stereo not drawn): the cytotoxicity at 70.5 h is -5.51%.

Regarding `COC1CCN(C(=O)CC(C)(C)C)CC(=O)N(C)c2ccccc21` (stereo not drawn), the cytotoxicity at 70.5 h came out at 6.54%.

For `COC1CCN(C(=O)Nc2ccccc2)CC(=O)N(C)c2ccccc21` (stereo not drawn), the cytotoxicity at 70.5 h was -6.71%.

For the molecule `CCOC(=O)CNC(=O)N1CCC(OC)c2ccccc2N(C)C(=O)C1` (stereo not drawn), the cytotoxicity at 70.5 h was -6.05%.

Turning to `CCOC(=O)COC1CCN(C(C)=O)CC(=O)N(C)c2ccccc21` (stereo not drawn), the cytotoxicity at 70.5 h was -3.91%.

With `O=C(CC1CCCC1)N1CCN2C[C@@H](CO)[C@H](c3ccccc3)[C@H]2C1`, the cytotoxicity at 70.5 h was found to be 24.2%.

For the molecule `CNC(=O)[C@@H]1[C@@H](c2ccccc2)CN2CCN(Cc3cc(C)no3)C[C@H]12`, the cytotoxicity at 70.5 h is -4.59%.

For the molecule `Cc1cc(CN2CCN3C[C@H](c4ccccc4)[C@@H](CO)[C@H]3C2)on1`, the cytotoxicity at 70.5 h is -5.95%.

As for `COCC(=O)N1CC2=CC(C)(C)COc3ccc(OC)c(c32)C1`, the cytotoxicity at 70.5 h was 21.5%.

For the molecule `COc1ccc2c3c1CN(C(=O)N(C)C)CC3=CC(C)(C)CO2`, the cytotoxicity at 70.5 h is -6.85%.

Consider `COc1ccc2c3c1CN(S(C)(=O)=O)CC3=CC(C)(C)CO2`, for which the cytotoxicity at 70.5 h was -6.24%.

For the molecule `CCCS(=O)(=O)N1CC(=O)N(Cc2ccccc2OC)CC(O)C1` (stereo not drawn), the cytotoxicity at 70.5 h came to 18.5%.

As for `CC(C)COC(=O)N1CC(=O)N(CCCc2ccccc2)CC(O)C1` (stereo not drawn), the cytotoxicity at 70.5 h is -4.38%.

On to `COc1cccc(OC)c1CN1CC(O)CN(S(C)(=O)=O)CC1=O` (stereo not drawn), for which the cytotoxicity at 70.5 h turned out to be 25.6%.

On to `COC1CN(C(=O)NC2CCCC2)CCC(=O)N(C)c2ccccc21` (stereo not drawn), for which the cytotoxicity at 70.5 h was -1.11%.

Turning to `CCN1Cc2cc(F)ccc2N(C(C)=O)CCC1=O`, the cytotoxicity at 70.5 h is -3.82%.

Take `CCN1Cc2cc(F)ccc2N(C(=O)C2CCC2)CCC1=O`: the cytotoxicity at 70.5 h was -9.67%.

Regarding `CC(C)CCc1cc(C(=O)O)nc2[nH]c(=O)[nH]c(=O)c12`, the cytotoxicity at 70.5 h was -15.5%.

Take `NCCC(Cc1ccccc1)c1ccco1` (stereo not drawn): the cytotoxicity at 70.5 h was 35%.

Consider `Cc1cnc(N2CCC3(CCC(C(=O)NC(C)C)OC3)CC2)nc1` (stereo not drawn), for which the cytotoxicity at 70.5 h was -2.25%.

For the molecule `CCC1CN(C(=O)c2ccc(=O)[nH]n2)CCC(=O)N1Cc1ccccc1` (stereo not drawn), the cytotoxicity at 70.5 h was determined as 1.68%.

For `CNC(=O)CNC(=O)CC1C(=O)NCCN1Cc1ccccc1C` (stereo not drawn), the cytotoxicity at 70.5 h is -5.79%.

On to `COc1cccc(-c2cccc(CN3C[C@@H]4CC[C@H](C3)N(C)C4=O)c2)c1`, for which the cytotoxicity at 70.5 h is 14.8%.

Take `Cc1nn(C)c(C)c1CCC(=O)NCc1csc(N2CCCC2)n1`: the cytotoxicity at 70.5 h worked out at 2.01%.

In the case of `Cc1[nH]c(-c2ccccc2)nc1C(=O)N1CCC2(CCCO2)CC1`, the cytotoxicity at 70.5 h is -2.81%.

As to `CN(CCc1ccccc1)c1cnn(CC(=O)N2CCOCC2)c(=O)c1`, the cytotoxicity at 70.5 h is -7.73%.

Turning to `CCOCC(O)CN1CCN(C(=O)c2ccc(OC)cc2)CC1` (stereo not drawn), the cytotoxicity at 70.5 h was -9.9%.

With `CC(C)N(C)S(=O)(=O)N(C)Cc1ccc2c(c1)OCCO2`, the cytotoxicity at 70.5 h amounted to 4.58%.

As for `CC(NC(=O)NCc1ccccn1)c1ccc2c(c1)CCC(=O)N2` (stereo not drawn), the cytotoxicity at 70.5 h is -6.54%.

On to `CC(Cn1cccn1)NC(=O)Nc1nncs1` (stereo not drawn), for which the cytotoxicity at 70.5 h is -2.31%.

Regarding `Cc1nc(CNC(=O)NCc2cccnc2N(C)C)cs1`, the cytotoxicity at 70.5 h is -5.06%.

Take `COC(=O)C(NC(=O)C1CCCC1)c1cc(F)ccc1F` (stereo not drawn): the cytotoxicity at 70.5 h was determined as 0.552%.

With `CC(O)CN1CCN(C(=O)c2cc3ccccc3n2C)CC1` (stereo not drawn), the cytotoxicity at 70.5 h is 14.8%.

As to `Cc1nc(C2CCCN2C(=O)CCCn2cccn2)no1` (stereo not drawn), the cytotoxicity at 70.5 h turned out to be 3.27%.

On to `Cn1cnnc1C1CCCN(C(=O)NCc2ccccn2)C1` (stereo not drawn), for which the cytotoxicity at 70.5 h was determined as 15.7%.

With `CN(Cc1ccco1)C(=O)C1CSCN1C(=O)c1cccs1` (stereo not drawn), the cytotoxicity at 70.5 h came to 12.5%.

As for `CCc1c(C(=O)N2CCCC(N(C)C)C2)cnn1C(C)(C)C` (stereo not drawn), the cytotoxicity at 70.5 h was -4.41%.

Consider `Cc1nn(C)c(C)c1C1CCCN1C(=O)CCNS(C)(=O)=O` (stereo not drawn), for which the cytotoxicity at 70.5 h is -5.69%.

Turning to `Cc1nc2n(n1)CC(NCc1cc(Cl)c3c(c1)OCCO3)CC2` (stereo not drawn), the cytotoxicity at 70.5 h is -4.92%.

Take `Cc1nn(C)c(Cl)c1C1CCCN1C(=O)CCNc1ncccn1` (stereo not drawn): the cytotoxicity at 70.5 h is -2.34%.

As to `COc1c(C2CCCN2C(=O)CCNc2ncccn2)c(C)nn1C` (stereo not drawn), the cytotoxicity at 70.5 h is -10.7%.

As for `COc1cc(CNC2CCc3nc(C)nn3C2)cc2c1OCO2` (stereo not drawn), the cytotoxicity at 70.5 h is -5.53%.

With `Cc1nnc(NC(=O)NCc2ccc(OC3CCCC3)nc2)s1`, the cytotoxicity at 70.5 h came out at 1.95%.

Consider `Cc1[nH]ncc1CCCNC(=O)N1CCCC(c2nncn2C)C1` (stereo not drawn), for which the cytotoxicity at 70.5 h was -1.78%.

Regarding `Cn1cc(CCNC(=O)N2CCCC(c3nncn3C)C2)cn1` (stereo not drawn), the cytotoxicity at 70.5 h is -4.93%.

As to `CCOCCCn1c(NC(=O)c2cnc(C)cn2)nc2ccccc21`, the cytotoxicity at 70.5 h is -5.61%.

For `CCc1c(C(=O)N2CCC(CC(N)=O)CC2)cnn1C(C)(C)C`, the cytotoxicity at 70.5 h is -3.41%.

Turning to `CCOCCCn1c(NC(=O)c2cc(C)no2)nc2ccccc21`, the cytotoxicity at 70.5 h worked out at 2.27%.

On to `Cc1ccccc1CN(C)C(=O)CN1CCCC(Cn2cncn2)C1` (stereo not drawn), for which the cytotoxicity at 70.5 h was -6.64%.

`CC(O)CN1CCN(Cc2coc(-c3ccc(Cl)cc3)n2)CC1` (stereo not drawn): the cytotoxicity at 70.5 h is -5.87%.

`Cc1cnc(CN(C)C2CCCN(Cc3noc(C4CC4)n3)C2)cn1` (stereo not drawn): the cytotoxicity at 70.5 h turned out to be 16.1%.

As for `Cc1cc(CN(C)C2CCCN(Cc3noc(C)n3)C2)no1` (stereo not drawn), the cytotoxicity at 70.5 h stood at 7.31%.

On to `Cc1nnc(CN(C)C2CCCN(Cc3noc(C4CC4)n3)C2)o1` (stereo not drawn), for which the cytotoxicity at 70.5 h was -8.76%.

Turning to `CN(Cc1ccccn1)C1CCCN(Cc2noc(C3CC3)n2)C1` (stereo not drawn), the cytotoxicity at 70.5 h is -8.62%.

With `CCc1ncncc1C(=O)N1CCCN(Cc2ccccc2C)CC1`, the cytotoxicity at 70.5 h is -8.2%.

`Cc1cc(NC(=O)CN2CCCC2Cn2nc(C)nc2C)n(C)n1` (stereo not drawn): the cytotoxicity at 70.5 h was -14.8%.

For the molecule `CCc1ccc(C(=O)NCCNc2ncccn2)cc1`, the cytotoxicity at 70.5 h was 11.9%.

As to `O=C(Cc1ccc2c(c1)CCCC2)NCCNc1cnccn1`, the cytotoxicity at 70.5 h is -11.7%.

Turning to `Cc1cccc(N2CCN(C(=O)CCc3c(C)noc3Cl)CC2)c1`, the cytotoxicity at 70.5 h was -8.69%.

As to `O=C(CNC(=O)c1ccc2c(c1)CCC2)NCCNc1ncccn1`, the cytotoxicity at 70.5 h is -14.4%.

On to `Cc1cnn(C2CN(CC(=O)NCCc3ccsc3)C2)c1`, for which the cytotoxicity at 70.5 h was -13.7%.

Take `CCCOCC(=O)NS(=O)(=O)c1ccc2c(c1)OCCO2`: the cytotoxicity at 70.5 h was -0.678%.

In the case of `Cc1cnn(C2CN(CC(=O)NCCc3c[nH]c4ccccc34)C2)c1`, the cytotoxicity at 70.5 h is -9.92%.

For the molecule `O=C(COCC(F)(F)F)NS(=O)(=O)c1ccc2c(c1)OCCCO2`, the cytotoxicity at 70.5 h is -6.81%.

As to `CC(C)CC(=O)NS(=O)(=O)c1ccc2c(c1)OCCCO2`, the cytotoxicity at 70.5 h is -8.04%.

In the case of `COc1cc(CCC(=O)NC(C)C(=O)O)ccc1OCC(F)(F)F` (stereo not drawn), the cytotoxicity at 70.5 h is -13%.

On to `CCCc1ccc(OCCNCc2ccco2)c(OC)c1`, for which the cytotoxicity at 70.5 h is -1.62%.

Take `Cc1cnc(N2CCC3(CCC(C(=O)NC(C)C)C3)CC2)nc1` (stereo not drawn): the cytotoxicity at 70.5 h was -7.58%.

In the case of `COCCN1CCO[C@H]2CCN(C(=O)c3ccnnc3)CC[C@@H]21`, the cytotoxicity at 70.5 h was -8.98%.
